We go through 16 compounds from patent US5223485A, “Anaphylatoxin-receptor ligands” (Abbott Laboratories, priority 1991, dated 1993).

Square brackets hold non-standard residues; d marks the D form. Peptide text beside a SMILES is read from it. * marks the point of attachment. ξ: configuration not given here. X3 = CC(C)C[C@H](NC[C@H](C)N*)C(=O)N[C@H](C)C(=O)N[C@@H](CCCNC(=N)N)C(=O)O; X2 = C[C@H](CN[C@@H](CCCNC(=N)N)C(=O)O)N*; NMe2Phe = CN(C)[C@@H](Cc1ccccc1)C(=O)*; 2Nal = N[C@@H](Cc1ccc2ccccc2c1)C(=O)O; NEtPhe = CCN[C@@H](Cc1ccccc1)C(=O)O; NMeF = CN[C@@H](Cc1ccccc1)C(=O)O; Cha = N[C@@H](CC1CCCCC1)C(=O)O; ξTic = O=C(O)C1Cc2ccccc2CN1; NMeA = CN[C@@H](C)C(=O)O; dNMeA = CN[C@H](C)C(=O)O; Boc = CC(C)(C)OC(=O)*; Ethyl(2-NH2) = NCC*; For = O=C*

The assay addresses T1, C5a Receptor (Homo sapiens, UniProt P21730).
T1 construct: 2.5-25 μg/mL of purified PMNL membrane fragments; from tissue; host or cells: polymorphonuclear leukocyte (PMNL) membrane fragments
T1 sequence (P21730 1-350): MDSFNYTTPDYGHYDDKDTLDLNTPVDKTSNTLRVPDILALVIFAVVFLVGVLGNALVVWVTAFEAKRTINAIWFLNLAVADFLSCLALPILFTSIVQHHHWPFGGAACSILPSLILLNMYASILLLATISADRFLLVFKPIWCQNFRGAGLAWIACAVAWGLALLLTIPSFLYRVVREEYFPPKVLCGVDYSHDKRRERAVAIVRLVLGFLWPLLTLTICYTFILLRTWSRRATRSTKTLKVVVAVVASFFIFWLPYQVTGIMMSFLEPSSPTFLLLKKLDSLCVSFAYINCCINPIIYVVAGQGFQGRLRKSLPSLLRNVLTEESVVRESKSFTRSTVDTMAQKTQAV
Nature of the assay: Anaphylatoxin receptor binding Ki determination: inhibition of 125I-C5a binding to PMNL membrane fragments. The conditions noted are these: 0.03-1 nM 125I-C5a, 2.5-25 μg/mL purified PMNL membrane fragments, filtration; read-out: In vitro C5a Receptor Binding Potency Ki. The method, then: Specific inhibition of C5a binding activity of representative compounds of the present invention was measured using 0.03-1 nM ^125 I-C5a with 2.5-25 μg/mL of purified PMNL membrane fragments (Borregaard, N.; Heiple, J. M.; Simons, E. R.; and Clark, R. A. J. Cell. Biol. 1983, 97, 52-61.). Free and membrane-bound ligand were separated by filtration.

As for `CC(C)C[C@H](NC(=O)[C@H](C)NC(=O)[C@H](CC1CCCCC1)NC(=O)[C@H](C)NC(=O)[C@H](CCCCN)NC(=O)[C@@H](N)Cc1ccccc1)C(=O)N(C)[C@H](C)C(=O)N[C@@H](CCCNC(=N)N)C(=O)O` [Example 296, H-Phenylalanyl-Lysyl-Alanyl-{(2S)-2-Amino-3-cyclohexylpropanoyl}-Alanyl-Leucyl-(N-Methyl)DAlanyl-Arginyl-OH] (H-FKA[Cha]AL[dNMeA]R-OH), the Ki was found to be 12 nM.
In the case of `CC(=O)N[C@@H](Cc1ccccc1)C(=O)N[C@@H](CCCCN)C(=O)N[C@@H](C)C(=O)N[C@@H](CC1CCCCC1)C(=O)N[C@@H](C)C(=O)N[C@@H](CC(C)C)C(=O)N[C@H](C)C(=O)N[C@@H](Cc1ccc(O)cc1)C(=O)O` [Example 305, Ac-Phenylalanyl-Lysyl-Alanyl-{(2S)-2-Amino-3-cyclohexylpropanoyl}-Alanyl-Leucyl-DAlanyl-Tyrosyl-OH] (Ac-FKA[Cha]AL[dA]Y-OH) it was 170 nM; in that of `CC(C)C[C@H](NC(=O)CNC(=O)[C@H](CC1CCCCC1)NC(=O)[C@@H](Cc1ccccc1)NC(=O)[C@H](CCCCN)NC(=O)[C@@H](N)Cc1ccccc1)C(=O)N[C@H](C)C(=O)N[C@@H](CCCNC(=N)N)C(=O)O` [Example 316, H-Phenylalanyl-Lysyl-DPhenylalanyl-{(2S)-2-Amino-3-cyclohexylpropanoyl}-Glycyl-Leucyl-DAlanyl-Arginyl-OH] (H-FK[dF][Cha]GL[dA]R-OH), 170 nM; in that of `CC(C)C[C@H](NC(=O)[C@H](CC1CCCCC1)NC(=O)[C@H](CC1CCCCC1)NC(=O)[C@H](C)NC(=O)[C@H](CCCCN)NC(=O)[C@@H](N)Cc1cn(C=O)c2ccccc12)C(=O)N[C@H](C)C(=O)N[C@@H](CCCNC(=N)N)C(=O)O` [Example 338, H-Tryptophyl(N-formyl)-Lysyl-Alanyl-{(2S)-2-Amino-3-cyclohexylpropanoyl}-{(2S)-2-Amino-3-cyclohexylpropanoyl}-Leucyl-DAlanyl-Arginyl-OH] (H-W(For)KA[Cha][Cha]L[dA]R-OH), 500 nM.
For `CC(C)C[C@H](NC(=O)[C@H](CC1CCCCC1)NC(=O)[C@H](CC1CCCCC1)NC(=O)[C@H](C)NC(=O)[C@H](CSCCN)NC(=O)[C@@H](N)Cc1ccccc1)C(=O)N[C@H](C)C(=O)N[C@@H](CCCNC(=N)N)C(=O)O` [Example 348, H-Phenylalanyl-(S-2-Aminoethyl)Cysteinyl-Alanyl-{(2S)-2-Amino-3-cyclohexylpropanoyl}-{(2S)-2-Amino-3-cyclohexylpropanoyl}-Leucyl-DAlanyl-Arginyl-OH] (H-FC(Ethyl(2-NH2))A[Cha][Cha]L[dA]R-OH) the value was 140 nM.
With `CSCC[C@H](NC(=O)[C@H](CC(=O)O)NC(=O)[C@H](CCCCN)NC(=O)[C@@H](N)Cc1ccc2ccccc2c1)C(=O)N[C@@H](CCC(N)=O)C(=O)N[C@@H](CC(C)C)C(=O)NCC(=O)N[C@@H](CCCNC(=N)N)C(=O)O` [Example 377, H-{3-(2'-Naphthyl)alanyl}-Lysyl-Aspartyl-Methionyl-Glutaminyl-Leucyl-Glycyl-Arginyl-OH] (H-[2Nal]KDMQLGR-OH), the Ki turned out to be 1800 nM.
Regarding `CCN[C@@H](Cc1ccccc1)C(=O)N[C@@H](CCCCN)C(=O)N[C@@H](C)C(=O)N[C@@H](CC1CCCCC1)C(=O)N[C@@H](C)C(=O)N[C@@H](CC(C)C)C(=O)N(C)[C@H](C)C(=O)N[C@@H](CCCNC(=N)N)C(=O)O` [Example 402, (N-Ethyl)Phenylalanyl-Lysyl-Alanyl-{(2S)-2-Amino-3-cyclohexylpropanoyl}-Alanyl-Leucyl-(N-Methyl)DAlanyl-Arginyl-OH] (H-[NEtPhe]KA[Cha]AL[dNMeA]R-OH), the inhibition constant Ki turned out to be 11 nM.
In the case of `CC(C)C[C@H](NC(=O)[C@H](C)NC(=O)[C@H](CC1CCCCC1)NC(=O)[C@H](C)NC(=O)[C@H](CCCCN)NC(=O)[C@H](Cc1ccccc1)NC(=O)OC(C)(C)C)C(=O)N[C@H](C)C(=O)N[C@@H](CCCNC(=N)N)C(=O)O` [Example 404, tert-Butyloxycarbonyl-Phenylalanyl-Lysyl-Alanyl-{(2S)-2-Amino-3-cyclohexylpropanoyl}-Alanyl-Leucyl-DAlanyl-Arginyl-OH] (Boc-FKA[Cha]AL[dA]R-OH) it was 130 nM; in that of `CC(C)C[C@H](NC[C@H](C)NC(=O)[C@H](CC1CCCCC1)NC(=O)[C@H](C)NC(=O)[C@H](CCCCN)NC(=O)[C@@H](N)Cc1ccccc1)C(=O)N[C@H](C)C(=O)N[C@@H](CCCNC(=N)N)C(=O)O` [Example 409, H-phenylalanyl-Lysyl-Alanyl-{(2S)-2-Amino-3-Cyclohexylpropanoyl}-Alanyl-.psi.{CH2 --NH}-Leucyl-DAlanyl-Arginyl-OH] (H-FKA[Cha]-X3), 3800 nM.
In the case of `CC(C)C[C@H](NC(=O)[C@H](C)NC(=O)[C@H](CC1CCCCC1)NC(=O)[C@H](C)NC(=O)[C@H](CCCCN)NC(=O)[C@@H](N)Cc1ccccc1)C(=O)N[C@H](C)CN[C@@H](CCCNC(=N)N)C(=O)O` [Example 421, H-Phenylalanyl-Lysyl-Alanyl-{(2S)-2-Amino-3-cyclohexylpropanoyl}-Alanyl-Leucyl-DAlanyl-.psi.{CH2 --NH}-Arginyl-OH] (H-FKA[Cha]AL-X2) it was 3200 nM; in that of `CSCC[C@H](NC(=O)[C@H](CC(=O)O)NC(=O)[C@H](CCCCN)NC(=O)[C@@H](N)Cc1ccccc1)C(=O)N[C@@H](CCCNC(=N)N)C(=O)N[C@@H](CC(C)C)C(=O)NCC(=O)N[C@@H](CCCNC(=N)N)C(=O)O` [Example 424, H-Phenylalanyl-Lysyl-Aspartyl-Methionyl-Arginyl-Leucyl-Glycyl-Arginyl-OH] (H-FKDMRLGR-OH), 480 nM; in that of `CC(C)C[C@H](NC(=O)[C@H](CCCNC(=N)N)NC(=O)[C@H](CC1CCCCC1)NC(=O)[C@H](C)NC(=O)[C@H](CCCCN)NC(=O)[C@@H](N)Cc1ccccc1)C(=O)N[C@H](C)C(=O)N[C@@H](CCCNC(=N)N)C(=O)O` [Example 432, H-Phenylalanyl-Lysyl-Alanyl-{(2S)-2-Amino-3-cyclohexylpropanoyl}-Arginyl-Leucyl-DAlanyl-Arginyl-OH] (H-FKA[Cha]RL[dA]R-OH), 30 nM.
For `CC(C)C[C@H](NC(=O)CNC(=O)C1Cc2ccccc2CN1C(=O)[C@H](C)NC(=O)[C@H](CCCCN)NC(=O)[C@@H](N)Cc1ccccc1)C(=O)N[C@H](C)C(=O)N[C@@H](CCCNC(=N)N)C(=O)O` (stereo partly shown) [Example 445, H-Phenylalanyl-Lysyl-Alanyl-{(3R/S)-1,2,3,4-Tetrahydroisoquinolin-3-carbonyl}-Glycyl-Leucyl-DAlanyl-Arginyl-OH] (H-FKA[ξTic]GL[dA]R-OH), the inhibition constant (Ki) is 260 nM.
In the case of `CC(C)C[C@H](NC(=O)CNC(=O)[C@H](CC1CCCCC1)NC(=O)[C@H](C)N(C)C(=O)[C@H](CCCCN)NC(=O)[C@H](Cc1ccccc1)N(C)C)C(=O)N(C)[C@H](C)C(=O)N[C@@H](CCCNC(=N)N)C(=O)O` [Example 455, (N,N-di-Methyl)Phenylalanyl-Lysyl-(N-Methyl)Alanyl-{(2S)-2-Amino-3-cyclohexylpropanoyl}-Glycyl-Leucyl-(N-Methyl)DAlanyl-Arginyl-OH] (NMe2Phe-K[NMeA][Cha]GL[dNMeA]R-OH) it was 17 nM; in that of `CN[C@@H](Cc1ccccc1)C(=O)N[C@@H](CCCCN)C(=O)N[C@@H](CCCNC(=N)N)C(=O)N[C@@H](CCSC)C(=O)N[C@@H](CCC(N)=O)C(=O)N[C@@H](CC(C)C)C(=O)NCC(=O)N[C@@H](CCCNC(=N)N)C(=O)O` [Example 460, (N-Methyl)Phenylalanyl-Lysyl-Arginyl-Methionyl-Glutaminyl-Leucyl-Glycyl-Arginyl-OH] (H-[NMeF]KRMQLGR-OH), 21 nM; in that of “Ac-Histidyl-Lysyl-Aspartyl-{(2S)-2-Amino-3-cyclohexylpropanoyl}-{(2S)-2-Amino-3-cyclohexylpropanoyl}-Leucyl-Pipecolyl(±)-Arginyl-OH [Example 13]”, 850 nM.
